In ChEMBL document CHEMBL1145800, “QSAR and proteo-chemometric analysis of the interaction of a series of organic compounds with melanocortin receptor subtypes” (J Med Chem, 2003):

What was measured:
Melanocortin receptor 5 = Melanocortin receptor 5 (Homo sapiens, UniProt P33032); assay: Binding affinity towards Melanocortin 5 receptor, expressed as negative log of the Ki value
Melanocortin receptor 3 = Melanocortin receptor 3 (Homo sapiens, UniProt P41968); assay: Binding affinity towards Melanocortin 3 receptor, expressed as negative log of the Ki value
Melanocortin receptor 4 = Melanocortin receptor 4 (Homo sapiens, UniProt P32245); assay: Binding affinity towards Melanocortin 4 receptor, expressed as negative log of the Ki value
[1] = target: Melanocyte-stimulating hormone receptor (Homo sapiens, UniProt Q01726); assay: Binding affinity towards Melanocortin 1 receptor, expressed as negative log of the Ki value
Chain of Melanocyte-stimulating hormone receptor (Q01726 whole entry): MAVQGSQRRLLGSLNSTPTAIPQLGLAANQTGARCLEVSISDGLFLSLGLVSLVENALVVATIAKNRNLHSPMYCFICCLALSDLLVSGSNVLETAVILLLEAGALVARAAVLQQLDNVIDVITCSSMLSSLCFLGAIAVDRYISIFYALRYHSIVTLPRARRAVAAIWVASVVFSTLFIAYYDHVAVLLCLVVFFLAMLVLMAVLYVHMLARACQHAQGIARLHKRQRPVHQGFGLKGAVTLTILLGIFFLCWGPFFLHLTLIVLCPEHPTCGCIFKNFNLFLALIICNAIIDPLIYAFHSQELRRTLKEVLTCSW

Chain of Melanocortin receptor 3 (P41968 whole entry): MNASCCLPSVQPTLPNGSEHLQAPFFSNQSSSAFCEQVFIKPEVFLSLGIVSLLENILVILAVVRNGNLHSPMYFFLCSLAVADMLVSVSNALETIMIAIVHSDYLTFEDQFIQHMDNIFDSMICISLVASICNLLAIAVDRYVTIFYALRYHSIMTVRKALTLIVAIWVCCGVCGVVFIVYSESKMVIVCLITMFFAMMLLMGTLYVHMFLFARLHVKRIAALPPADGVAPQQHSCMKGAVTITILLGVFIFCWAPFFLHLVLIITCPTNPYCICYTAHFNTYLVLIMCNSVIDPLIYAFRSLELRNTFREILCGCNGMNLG
Chain of Melanocortin receptor 4 (P32245 whole entry): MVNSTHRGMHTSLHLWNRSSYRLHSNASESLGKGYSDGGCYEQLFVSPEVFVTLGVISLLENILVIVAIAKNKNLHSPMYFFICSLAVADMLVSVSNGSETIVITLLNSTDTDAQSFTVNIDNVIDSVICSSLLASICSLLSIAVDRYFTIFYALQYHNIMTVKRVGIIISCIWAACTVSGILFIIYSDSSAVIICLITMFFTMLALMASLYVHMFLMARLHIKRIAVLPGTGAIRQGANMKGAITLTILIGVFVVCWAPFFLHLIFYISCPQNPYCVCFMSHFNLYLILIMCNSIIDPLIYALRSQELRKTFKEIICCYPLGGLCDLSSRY
Chain of Melanocortin receptor 5 (P33032 whole entry): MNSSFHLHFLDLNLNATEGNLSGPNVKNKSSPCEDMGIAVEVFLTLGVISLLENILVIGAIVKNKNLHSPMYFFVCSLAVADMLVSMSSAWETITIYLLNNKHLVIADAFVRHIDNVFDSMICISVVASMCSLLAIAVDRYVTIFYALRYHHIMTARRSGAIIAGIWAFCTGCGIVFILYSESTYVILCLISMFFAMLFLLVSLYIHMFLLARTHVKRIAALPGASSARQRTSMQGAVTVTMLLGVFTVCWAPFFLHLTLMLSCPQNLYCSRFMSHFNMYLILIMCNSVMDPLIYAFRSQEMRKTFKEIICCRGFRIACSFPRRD

Compound	Ki (Melanocortin receptor 5) [µM]	Ki (Melanocortin receptor 3) [µM]	Ki (Melanocortin receptor 4) [µM]	Ki [1] [µM]
NCCCCCC(=O)N(Cc1ccc2ccccc2c1)Cc1cccc2ccccc12	3.98	31.6	2	1.58
NC(N)=NCCC[C@H](N)C(=O)N(Cc1ccc2ccccc2c1)Cc1cccc2ccccc12		7.94	5.01	0.631
N=C(N)NCCCNC(=O)[C@H](CCCN=C(N)N)NCc1ccc2ccccc2c1	1000	5.01	31.6	3.98
NCCCNC(=O)[C@H](CNCc1c[nH]c2ccccc12)NCc1ccc2ccccc2c1	39.8	50.1	25.1	0.631
